{"source": "patent US20250214978A1", "about": "“AT2R AGONIST” (WUHAN HUMANWELL INNOVATIVE DRUG RESEARCH AND DEVELOPMENT …, priority 2022, published 2025)", "data": [{"target": "AT2R (Homo sapiens (Human), UniProt P50052)", "sequence (P50052 whole entry)": "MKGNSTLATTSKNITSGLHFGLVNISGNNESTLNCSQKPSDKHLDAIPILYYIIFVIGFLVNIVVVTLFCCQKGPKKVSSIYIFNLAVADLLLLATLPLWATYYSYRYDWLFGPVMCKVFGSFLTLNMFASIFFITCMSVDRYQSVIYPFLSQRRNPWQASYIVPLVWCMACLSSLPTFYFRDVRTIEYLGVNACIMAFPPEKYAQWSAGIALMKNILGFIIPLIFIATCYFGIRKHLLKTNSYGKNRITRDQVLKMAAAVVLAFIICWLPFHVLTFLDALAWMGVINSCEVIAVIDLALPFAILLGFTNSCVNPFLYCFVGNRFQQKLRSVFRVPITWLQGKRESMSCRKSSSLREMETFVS", "assay": "Binding assay of compounds to AT2R (Tag-lite HTRF ligand binding kit)", "conditions": "1 hour incubation at room temperature", "method": "The assay was performed in accordance with the instruction manual of Angiotensin AT2 Receptor Ligand Binding Assay Kit (#C1TT1AT2, Cisbio). First, a compound stock solution (10 mM) was diluted in a gradient at a 5× dilution ratio (including 10 concentrations, each with two replicates). 160 nL of compounds at different concentrations was added to a 384-well plate. 40 μL of 1×TLB was added to each well, and the mixture was shaken at room temperature for 15 minutes. 15 mL centrifuge tube added with 5 mL of 1×TLB was prepared in advance. The frozen labeled cells were thawed in a water bath at 37° C. (for 1 to 2 minutes), and the thawed cells were quickly transferred to the above 15 mL centrifuge tube. The mixture was mixed well and centrifuged at 1,000 g at room temperature for 5 minutes. The supernatant was removed, and the cells were resuspended by adding 2.7 mL 1×TLB. A new 384-well plate was taken, and 10 μL of mixed cells were added into the corresponding wells according to the assay design. 5 μL of 4× compound solution and 5 μL of 4× Tag-lite red fluorescent labeled ligand were added to each well. After incubation at room temperature for 1 hour, data were read using EnVision with an HTRF mode. The excitation light intensities at 665 nM and 615 nM in each well were read respectively, and the ratio was calculated (Ratio=A665nMIB615 nM). The IC50 value was calculated by means of GraphPad Prism8 software, where X represents logarithmic value of compound concentration; and Y represents ratio of A665 nM/B615 nM.", "units": {"IC50": "nM"}, "values": [{"smiles": "CCCCOC(=O)NS(=O)(=O)c1sc(CC(C)C)cc1-c1ccc(Cn2ccnc2)cc1C", "note": "[Compound I-1, Butyl ((3-(4-((1H-imidazol-1-yl)methyl)-2-methylphenyl)-5-isobutylthiophen-2-yl)sulfonyl)carbamate]", "IC50": 4.28}, {"smiles": "CCCCOC(=O)NS(=O)(=O)c1sc(CC(C)C)cc1-c1ccc(Cn2ccnc2)c(C)c1", "note": "[Compound I-2, Butyl ((3-(4-((1H-imidazol-1-yl)methyl)-3-methylphenyl)-5-isobutylthiophen-2-yl)sulfonyl)carbamate]", "IC50": 3.32}, {"smiles": "CCCCOC(=O)NS(=O)(=O)c1sc(CC(C)C)cc1-c1ccc(Cn2ccnc2)cc1C#N", "note": "[Compound I-3, Butyl ((3-(4-((1H-imidazol-1-yl)methyl)-2-cyanophenyl)-5-isobutylthiophen-2-yl)sulfonyl)carbamate]", "IC50": 3.95}, {"smiles": "CCCCOC(=O)NS(=O)(=O)c1sc(CC(C)C)cc1-c1ccc(Cn2ccnc2)c(C#N)c1", "note": "[Compound I-4, Butyl ((3-(4-((1H-imidazol-1-yl)methyl)-3-cyanophenyl)-5-isobutylthiophen-2-yl)sulfonyl)carbamate]", "IC50": 3.54}, {"smiles": "CCCCOC(=O)NS(=O)(=O)c1sc(CC(C)C)cc1-c1ccc(Cn2ccnc2)nc1", "note": "[Compound I-6, Butyl ((3-(6-((1H-imidazol-1-yl)methyl)pyridin-3-yl)-5-isobutylthiophen-2-yl)sulfonyl)carbamate]", "IC50": 11.4}, {"smiles": "CCCCOC(=O)NS(=O)(=O)c1sc(CC(C)C)cc1-c1ccc(C(C)n2ccnc2)cc1", "note": "(stereo not shown) [Compound I-7, Butyl ((3-(4-(1-(1H-imidazol-1-yl)ethyl)phenyl)-5-isobutylthiophen-2-yl)sulfonyl)carbamate]", "IC50": 3.8}, {"smiles": "CCCCOC(=O)NS(=O)(=O)c1sc(CC(C)C)c(C)c1-c1ccc(Cn2ccnc2)cc1", "note": "[Compound I-8, Butyl ((3-(4-((1H-imidazol-1-yl)methyl)phenyl)-5-isobutyl-4-methylthiophen-2-yl)sulfonyl)carbamate]", "IC50": 4.4}, {"smiles": "COC(=O)NS(=O)(=O)c1sc(CC(C)C)cc1-c1ccc(Cn2ccnc2C)cc1C#N", "note": "[Compound I-10, Methyl (3-(2-cyano-4-((2-methyl-1H-imidazol-1-yl)methyl)phenyl)-5-isobutylthiophen-2-yl)sulfonylcarbamate]", "IC50": 2.15}, {"smiles": "COC(=O)NS(=O)(=O)c1sc(CC(C)C)cc1-c1ccc(Cn2ccnc2C(C)(C)C)cc1C#N", "note": "[Compound I-17, Methyl (3-(4-((2-(tert-butyl)-1H-imidazol-1-yl)methyl)-2-cyanophenyl)-5-isobutylthiophen-2-yl)sulfonylcarbamate]", "IC50": 2.09}, {"smiles": "Cc1nccn1Cc1ccc(-c2cc(CC(C)C)sc2S(=O)(=O)NC(=O)NCCC(F)(F)F)c(C#N)c1", "note": "[Compound I-18, 3-(2-cyano-4-((2-methyl-1H-imidazol-1-yl)methyl)phenyl)-5-isobutyl-N-((3,3,3-trifluoropropyl)carbamoyl)thiophene-2-sulfonamide]", "IC50": 1.63}, {"smiles": "Cc1cc(Cn2ccnc2C)ccc1-c1cc(CC(C)C)sc1S(=O)(=O)NC(=O)NCc1ccccn1", "note": "[Compound I-19, 5-isobutyl-3-(2-methyl-4-((2-methyl-1H-imidazol-1-yl)methyl)phenyl)-N-((pyridin-2-ylmethyl)carbamoyl)thiophene-2-sulfonamide]", "IC50": 1}, {"smiles": "COC(=O)NS(=O)(=O)c1sc(CC(C)C)cc1-c1ccc(Cn2ccnc2C)c(C)c1", "note": "[Compound I-21, Methyl ((5-isobutyl-3-(3-methyl-4-((2-methyl-1H-imidazol-1-yl)methyl)phenyl)thiophen-2-yl)sulfonyl)carbamate]", "IC50": 2.73}, {"smiles": "CCNC(=O)NS(=O)(=O)c1sc(CC(C)C)cc1-c1ccc(Cn2ccnc2C)c(C)c1", "note": "[Compound I-22, N-(ethylcarbamoyl)-5-isobutyl-3-(3-methyl-4-((2-methyl-1H-imidazol-1-yl)methyl)phenyl)thiophene-2-sulfonamide]", "IC50": 7.28}, {"smiles": "Cc1cc(-c2cc(CC(C)C)sc2S(=O)(=O)NC(=O)NCCO)ccc1Cn1ccnc1C", "note": "[Compound I-23, N-((2-hydroxyethyl)carbamoyl)-5-isobutyl-3-(3-methyl-4-((2-methyl-1H-imidazol-1-yl)methyl)phenyl)thiophene-2-sulfonamide]", "IC50": 11.3}, {"smiles": "COC(=O)NS(=O)(=O)c1sc(CC(C)C)cc1-c1ccc(Cn2ccnc2C)c(C#N)c1", "note": "[Compound I-24, Methyl ((3-(3-cyano-4-((2-methyl-1H-imidazol-1-yl)methyl)phenyl)-5-isobutylthiophen-2-yl)sulfonyl)carbamate]", "IC50": 1.51}, {"smiles": "COC(=O)NS(=O)(=O)c1sc(CC(C)C)cc1-c1ccc(Cn2ccnc2C(C)(C)C)cc1C", "note": "[Compound I-25, Methyl ((3-(4-((2-(tert-butyl)-1H-imidazol-1-yl)methyl)-2-methylphenyl)-5-isobutylthiophen-2-yl)sulfonyl)carbamate]", "IC50": 5.65}, {"smiles": "COC(=O)NS(=O)(=O)c1sc(CC(C)C)c(C)c1-c1ccc(Cn2ccnc2C(C)(C)C)cc1", "note": "[Compound I-26, Methyl ((3-(4-((2-(tert-butyl)-1H-imidazol-1-yl)methyl)phenyl)-5-isobutyl-4-methylthiophen-2-yl)sulfonyl)carbamate]", "IC50": 3.76}, {"smiles": "COC(=O)NS(=O)(=O)c1sc(CC(C)C)cc1-c1ccc(Cn2ccnc2C(C)C)c(C#N)c1", "note": "[Compound I-27, Methyl ((3-(3-cyano-4-((2-isopropyl-1H-imidazol-1-yl)methyl)phenyl)-5-isobutylthiophen-2-yl)sulfonyl)carbamate]", "IC50": 3.35}, {"smiles": "CCOC(=O)NS(=O)(=O)c1sc(CC(C)C)c(C)c1-c1ccc(Cn2ccnc2C)cc1", "note": "[Compound I-28, Ethyl ((5-isobutyl-4-methyl-3-(4-((2-methyl-1H-imidazol-1-yl)methyl)phenyl)thiophen-2-yl)sulfonyl)carbamate]", "IC50": 4.06}, {"smiles": "CCCOC(=O)NS(=O)(=O)c1sc(CC(C)C)c(C)c1-c1ccc(Cn2ccnc2C)cc1", "note": "[Compound I-29, Propyl ((5-isobutyl-4-methyl-3-(4-((2-methyl-1H-imidazol-1-yl)methyl)phenyl)thiophen-2-yl)sulfonyl)carbamate]", "IC50": 4.5}, {"smiles": "CCCCOC(=O)NS(=O)(=O)c1sc(CC(C)C)c(C)c1-c1ccc(Cn2ccnc2C)cc1", "note": "[Compound I-31, Butyl ((5-isobutyl-4-methyl-3-(4-((2-methyl-1H-imidazol-1-yl)methyl)phenyl)thiophen-2-yl)sulfonyl)carbamate]", "IC50": 4.86}, {"smiles": "CCc1nccn1Cc1ccc(-c2c(S(=O)(=O)NC(=O)OC)sc(CC(C)C)c2C)cc1", "note": "[Compound I-32, Methyl ((3-(4-((2-ethyl-1H-imidazol-1-yl)methyl)phenyl)-5-isobutyl-4-methylthiophen-2-yl)sulfonyl)carbamate]", "IC50": 1.32}, {"smiles": "COC(=O)NS(=O)(=O)c1sc(CC(C)C)c(C)c1-c1ccc(Cn2ccnc2C(C)C)cc1", "note": "[Compound I-33, Methyl ((5-isobutyl-3-(4-((2-isopropyl-1H-imidazol-1-yl)methyl)phenyl)-4-methylthiophen-2-yl)sulfonyl)carbamate]", "IC50": 1.61}, {"smiles": "COC(=O)NS(=O)(=O)c1sc(CC(C)C)c(C)c1-c1ccc(Cn2ccnc2C)c(C)c1", "note": "[Compound I-35, Methyl ((5-isobutyl-4-methyl-3-(3-methyl-4-((2-methyl-1H-imidazol-1-yl)methyl)phenyl)thiophen-2-yl)sulfonyl)carbamate]", "IC50": 3.4}, {"smiles": "CCCCOC(=O)NS(=O)(=O)c1sc(CC(C)C)cc1-c1ccc(Cn2ccnc2C)cc1C", "note": "[Compound I-36, Butyl ((5-isobutyl-3-(2-methyl-4-((2-methyl-1H-imidazol-1-yl)methyl)phenyl)thiophen-2-yl)sulfonyl)carbamate]", "IC50": 2.39}]}]}
